Measurements published in patent publication US12516086B2 (SRI International, priority 2021, dated 2026).
Ends that are not written are not given here.

How the values were obtained:
[1] = test system: HT22 and GT1/7 neuronal cell lines vs CTX TNA2 astrocytes and HMC3 microglia; assay: Uptake of MGS_NOE3 tetramers across cell lines by quantitative flow cytometry; assay type: cell-based, mouse, rat, human; conditions: 200 nM, 1 h
Protocol: (§1) It must be on the tetrameric core to function. […] The number of molecules of peptide internalized per cell was determined by a quantitative flow cytometry assay. […] MGS_NOE3_V1-4 and MGS_NOE3_V2-4 display a 5-6-fold specificity for neurons over astrocytes and 3-fold specificity compared to microglia. […] Incubations were performed for 1 h at 37° C. […] Uptake was determined by flow cytometry assay.
(§2) Peptide concentration and incubation time as well as cell line used is indicated in each figure. […] Cells were removed by trypsinization. Flow cytometry was performed on a BD FACSCelesta, and data were analyzed using FlowJo_v10.8. Cells were gated based on the forward and side scatter to include only viable cells and a minimum of 10,000 events were counted. For absolute peptide uptake per cell, a standard curve was generated using Quantum™ Alexa Fluor 647 microspheres. MFI was determined at 50% at peak height. Molecules internalized per cell were determined by the standard curve relating MESF to MFI and divided by the number dye molecules/MGS conjugate. GraphPad Prism® was used for non-linear regression curve fitting to calculate an EC50.

[2] = test system: HT22 cells (mouse hippocampal neuronal cell line); assay: Peptide uptake by quantitative flow cytometry in HT22 cells; assay type: cell-based; conditions: for Uptake into HT22 cells versus concentration (in words): 1 h at 37° C.
Protocol: FIG. 26A. […] FIG. 26B. […] FIG. 26C.
as §1, §2

[3] = test system: brain cells; assay: Brain cell association after intrathecal injection, flow cytometry; assay type: in vivo, C57BL/6 mouse; conditions: Alexa Fluor 647 label, 1 hr circulation, compared to naïve animals
From the text: (A) Gating strategy for total brain cells vs debris. (B) Gating strategy excluding cell doublets. FIG. 24C indicates the fluorescent intensity of MGS_NOE3-V2-4 internalized into brain cells following intrathecal injection compared to naïve animals.
MGS_NOE3-V2-4 was labeled with Alexa Fluor 647 and injected intrathecally in a C57BL/6 mouse. After the peptide circulated for 1 hr, the animal was euthanized, and the brain tissue was harvested. The whole brain was subsequently dissociated using the Miltenyi Biotec gentleMACS Octo Dissociator. The number of MGS_NOE3_V2-4 molecules internalized into brain cells were analyzed by flow cytometry (BD FACSCelesta).
Alternatively, all CNS cells were analyzed as a mixture by dissociating the brain using the Miltenyi Biotec gentleMACS Octo Dissociator. No enrichment for a CNS subpopulation was performed and cells were directly analyzed by flow cytometry. Gating was used to eliminate cell debris and cell doublets.

[4] = test system: HT22 cells; assay: Confocal live cell imaging of internalization into HT22 cells; conditions: 200 nM, 37° C., Alexa Fluor 647
Protocol: Cells were incubated with 200 nM, and the average uptake per cell was determined. […] Alexa Fluor 488 conjugated wheat germ agglutinin was used to label the cell membrane and Hoechst 33342 was used to stain the nucleus. Live cell imaging was performed, and representative images are shown.
AlexaFluor488 conjugated wheat germ agglutinin was used to label the cell membrane and Hoechst 33342 was used to stain the nucleus. Live cell imaging was performed, and representative images are shown.
The test cells were seeded in 35 mm confocal microscopy dish 24 hours prior to treatment. The test peptides labeled with Alexa Fluor 647 were incubated on cells in media for the indicated time at 37° C. After incubation, the cells were washed 3 times with PBS, 2 times with 0.1 M HCl-glycine pH 2.2 in 0.9% NaCl and 1 time with PBS. Alexa Fluor 488 conjugated wheat germ agglutinin was used to label the cell membrane and Hoechst 33342 was used to stain the nucleus. Microscopy was acquired on a Zeiss LSM 700 with a Pln Apo 63×/1.4 oil DIC III objective. Images were processed using Zen software.
For peptides that were biotinylated instead of direct labeling with Alexa Fluor 647, the peptide-SA-AF647 conjugate was prepared by mixing Alexa Fluor™ 647 conjugated streptavidin and biotinylated peptide with an equal molecular ratio in 100 μl PBS for 30 minutes at room temperature. […]

[5] = test system: HT-22 cells; assay: Receptor recycling: MGS_NOE3_V2-4 uptake with chloroquine or cycloheximide; assay type: cell-based, mouse; conditions: 100 nM MGS_NOE3_V2-4; 100 μM chloroquine or 250 μM cycloheximide; up to 24 h
Protocol: The cellular receptor for MGS_NOE3_V2-4 is recycled (FIG. 22). HT-22 cells were incubated with culture medium containing 100 nM MGS_NOE3_V2-4 in the presence of 100 μM chloroquine or 250 μM cycloheximide for the indicated times. The cellular uptake was analyzed by flow cytometry. […] New protein synthesis is not required for continued uptake of MGS_NOE3_V2-4. Endosomal acidification is required for continued uptake of MGS_NOE3_V2-4. MGS_NOE3_V2-4 uptake continues with time.
For experiments to determine if the cellular receptor is recycled, cells were treated with peptide in the presence of 100 μM chloroquine or 250 μM cycloheximide. At the indicated time points, the cells were washed and analyzed as described above.

[6] = molecular target: Recombinant human transferrin receptor (Homo sapiens, UniProt P02786); assay: ELISA binding to plate-absorbed transferrin receptor; conditions: receptor at 1 μg/mL, biotinylated peptide at varying concentrations, 1 h
Chain of Recombinant human transferrin receptor (P02786 whole entry): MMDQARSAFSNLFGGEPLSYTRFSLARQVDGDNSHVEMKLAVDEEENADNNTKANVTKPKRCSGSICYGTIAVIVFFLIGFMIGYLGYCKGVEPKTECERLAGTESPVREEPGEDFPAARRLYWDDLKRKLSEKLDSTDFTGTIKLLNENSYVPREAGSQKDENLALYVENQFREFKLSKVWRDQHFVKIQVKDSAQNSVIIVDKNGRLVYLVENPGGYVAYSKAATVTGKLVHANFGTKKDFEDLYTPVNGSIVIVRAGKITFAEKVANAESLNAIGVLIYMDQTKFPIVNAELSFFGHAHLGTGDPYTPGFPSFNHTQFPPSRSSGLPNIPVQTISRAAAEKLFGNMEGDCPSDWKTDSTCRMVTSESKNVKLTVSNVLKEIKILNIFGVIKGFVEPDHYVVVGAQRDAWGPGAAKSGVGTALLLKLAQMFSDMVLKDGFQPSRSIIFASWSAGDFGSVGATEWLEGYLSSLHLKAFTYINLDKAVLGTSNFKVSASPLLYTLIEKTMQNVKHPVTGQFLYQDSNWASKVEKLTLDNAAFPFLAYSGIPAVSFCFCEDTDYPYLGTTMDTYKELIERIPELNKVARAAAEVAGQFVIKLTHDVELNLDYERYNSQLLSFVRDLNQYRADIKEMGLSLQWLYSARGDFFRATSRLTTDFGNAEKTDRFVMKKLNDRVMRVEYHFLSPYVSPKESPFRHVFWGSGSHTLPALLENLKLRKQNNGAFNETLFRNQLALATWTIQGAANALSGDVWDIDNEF
Protocol: Recombinant human transferrin receptor was absorbed onto high binding ELISA plates at 1 μg/mL. […] Retained MTS peptide was detected using streptavidin-HRP and TMB reagent. The absorbance was measured at 450 nm and is proportional to the amount of MTS peptide captured by transferrin receptor. […] By comparison, MTS3_V1-2 and a scrambled control peptide of MTS2_V1-2 show no binding. The binding affinity of MTS2_V1-2 for transferrin receptor was determined by biolayer interferometry on a OctetRED 96 system. The biotinylated MTS2_V1-2 peptide was captured on streptavidin probe. The kon and koff rate were determined at various concentrations of human or mouse transferrin receptor allowing for determination of the dissociation constant.

[7] = rat, in vivo
Protocol: MTS variants labeled with the near infrared dye Alexa Fluor 750 were injected into the tail vein of Sprague Dawley rats at 1 μg MTS/kg rat body weight. At the indicated time, CSF was isolated via capillary puncture of the cisterna magna. […] To assure the fatty acid is not driving the transport into the CNS, a control peptide scMTS3_V2-2 which contains the MTS3 amino acid composition but with a scrambled sequence was lipidated.
The MTS peptide directly conjugated to Alexa Fluor 750 dye (1 μg/g body weight) is injected via lateral tail vein into a Sprague-Dawley Rat and allowed to circulate for the indicated time (20 min, 1 h 6 h, 24 h). The animal is anesthetized 10 mins prior to the end of the time point and 2 mL 200× Heparinized Saline is injected intraperitoneally. To collect the CSF, a blunt dissection of the back of the neck is performed to expose the clear dura mater covering the cisterna magna. Using a glass micropipette, CSF is aspirated from the cisterna magna at the indicated time point. Following CSF collection, a transcardial perfusion is performed by flushing with 500 mL ice cold 1× PBS containing heparin to remove any blood from the body. The brain and other tissues are isolated. The brain is homogenized using a Dounce homogenizer in lysis buffer (30 mM Tris-HCl, pH 8.0 0.05% Triton X-100) and the soluble fraction collected. […]

[8] = rat, in vivo; remark: listed apart in the source
Protocol: Coronal slices are 1 mm and arranged from the front (upper left) to back (lower right).
Coronal slices of 1 mm thickness are prepared using a brain matrix. The slices are imaged on an Odyssey Imager collecting fluorescent signal at 800 nm.

[9] = test system: HMC3 cells (human microglia cell line); assay: Peptide uptake by quantitative flow cytometry in HMC3 cells; assay type: cell-based
Protocol: Under both cell states, an average of ˜60,000 molecules of MGS2_V4-2 were internalized. […] All cell lines were incubated with MGS2_V4-2 at 25 nM for 1 hour at 37° C.
Cells were incubated at the indicated concentration of each peptide construct that had been labeled with Alexa Fluor 647. After 1 h incubation at 37° C., uptake was determined by quantitative flow cytometry. […] Thus, uptake is mediated by the MGS not the MTS.
However, binding was rescued by using the tetrameric MGS2_V4-4 as the targeting peptide in this multifunctional chimera (shown in panel A).
as §2
HMC3 cells were activated with interferon-gamma (IFN-γ) (10 ng/ml, 24 h). Resting phenotype was characterized by expression of IBA1, and endotoxin receptor CD14, but negative for the astrocyte marker GFAP. […] In Vivo MTS and MTS-MGS Targeting Experiments

[10] = human serum (Innovative Research, H6430); conditions: 37° C., up to 24 hours
[11] = Serum stability (RP-HPLC of Alexa Fluor 647 labeled peptide); assay type: in vitro ADME; conditions: 37° C., 24 h
Protocol: MGS2_V4-2 labeled with Alex Fluor 647 was incubated in human serum at 37° C. At the indicated times, an aliquot was removed, serum proteins were precipitated, and the resultant supernatant was analyzed by reverse phase HPLC monitoring the absorbance at 650 nm. Chromatograms for each time point are shown. Intact peptide has a retention time at 11.864. […] Peaks were integrated to determine the percentage of intact peptide as well as the amount of observed degradation product. At 24 h, >75% of the MGS2_V4-2 is still intact. Electrospray mass spectrometry was performed on the peptide product arising at the 10.005 min retention time. The mass of this new species corresponds to the loss of the 3 amino acids on both branches of MGS2_V4-2.
The concentration of a solution of peptide conjugated with dye (Alexa Fluor 647) was determine by absorbance at 651 nm and ˜14 nmol of peptide was lyophilized. The lyophilized peptide powder was dissolved in 400 μL of human serum (Innovative Research, H6430) to achieve a 35 μM solution. The sample was incubated at 37° C. and shaken. For each time point (0, 1, 2, 4, 20 and 24 hours), a 50 μL aliquot was removed from the reaction and 100 μL of absolute ethanol was added to precipitate serum proteins. Samples were incubated on ice for 15 mins before being centrifuged at 12,000 rpm for 5 mins. […] Finally, 100 μL of each sample were analyzed by analysis RP-HPLC.

## MGS_NOE3_V2-4: tetrameric version of Ac-GFHNVYPYTWGGFSDIDLMADEI (SEQ ID NO:5) (also: tetrameric construct)
[1]
  Specificity for neurons compared to microglia: 3 fold
[2]; 200 nM, 37° C.
  Uptake into HT22 cells over time (in words): increases over time
[2]
  Uptake into HT22 cells versus concentration (in words): increases with increasing concentration
[2]; uptake to at least 24 H
  Intracellular concentration reached: ≈ 1 μM
[3]
  Association with brain cells after intrathecal injection: associated with cells in the CNS after intrathecal injection
[4]
  Internalization into HT22 cells by confocal live cell imaging: internalized into neuronal cells

## MGS_NOE3_V1-4: tetrameric version of GFHNVYPYTWGGFSDIDLMADEI (SEQ ID NO:1) (also: tetrameric construct on a core linker)
[1]
  Specificity for neurons compared to microglia: 3 fold

## Ac-GFHNVYPYTWGGFSDIDLMADEI [MGS_NOE3_V2]
[2]
  Uptake into HT22 cells versus concentration (in words): no uptake was observed on HT22 cells

## C[C@@H]1C[C@@H]([C@H](O)CC2CC(=O)NC(=O)C2)C(=O)[C@@H](C)C1 [Cycloheximide]
[5]
  Effect on MGS_NOE3_V2-4 uptake: no impact on MGS_NOE3_V2-4 uptake

## CCN(CC)CCCC(C)Nc1ccnc2cc(Cl)ccc12 (stereo not shown) [chloroquine]
[5]
  Effect on MGS_NOE3_V2-4 uptake: greatly reduces uptake

## dimer version of MTS2_V1, Ac-FPSWTSKNQQWTNQRQ (also: dimer) [MTS2_V1-2]
[6]
  Binding to transferrin receptor in ELISA (absorbance at 450 nm): binds to human transferrin in a concentration dependent manner which saturates at higher concentrations

## MTS3_V2-2 (Ac-SKETYSMNAQRQHERS; also: dimer, C16 fatty acid)
[7]
  Transport into the brain parenchyma, fold higher than nonmodified MTS3_V1-2: 10-12 fold
  Transport into the brain parenchyma, fold higher than scrambled control scMTS3_V2-2: 17-31 fold
[8]
  Brain uptake by fluorescent imaging of 1 mm coronal slices: increased brain uptake compared to MTS3_V1-2 at all time points

## MTS3_V1-2 (Ac-SKETYSMNAQRQHERS; also: dimer)
[9]; 1 h at 37° C., quantitative flow cytometry
  Cellular uptake in HMC3 cells (in words): no significant cellular uptake at any of the concentrations tested
[6]
  Binding to transferrin receptor in ELISA (absorbance at 450 nm): no binding

## Ac-YAAWPASGAWT
[10]
  fragment found: loss of the 3 amino acids on both branches of MGS2_V4-2, 1 h

## MGS_NOE3_V2-2 (Ac-GFHNVYPYTWGGFSDIDLMADEI; also: dimer)
[2]
  Uptake into HT22 cells versus concentration (in words): no uptake was observed on HT22 cells

## dimeric form of MGS2_V4, Ac-YAAWPASGAWT (SEQ ID NO:8) [MGS2_V4-2]
[9]; 25 nM, 1 hour at 37° C., versus neuronal cells, Schwann cell, astrocytes
  Uptake in HMC3 cells versus other CNS cell lines (specificity): significantly higher in HMC3 cells than other cells of the central nervous system
[9]; HMC3 cells of resting or activated phenotype, 1 hour
  Molecules internalized (average): ~60,000 molecules
[9]; HMC3 cells, 1 h at 37° C., read-out: EC50 (half maximal uptake)
  EC50: 7.3 nM
[11]
  Intact peptide in human serum: > 75%
